Assay results: patent US7932271B2, “Heterocyclic methyl sulfone derivative” (Daiichi Pharmaceutical Co., Ltd., priority 2003, dated 2011)

| SMILES | melting point [°C] |
| --- | --- |
| CS(=O)(=O)Nc1cc(C(c2cc(F)ccc2F)S(=O)(=O)c2ccc(Cl)cc2)c(F)cn1 (stereo not drawn) [Example 204, N-[4-[(4-Chlorophenylsulfonyl)(2,5-difluorophenyl)methyl]-5-fluoropyridin-2-yl]methanesulfonamide] | 217 to 219 |
| CN(C)CC(=O)NCc1ccc(C(c2cc(F)ccc2F)S(=O)(=O)c2ccc(Cl)cc2)nc1 (stereo not drawn) [Example 71, N-[[6-[(4-Chlorophenylsulfonyl)(2,5-difluorophenyl)methyl]pyridin-3-yl]methyl]-2-dimethylaminoacetamide] | 177 to 179 |
| Cc1cnc(C(=O)O)cc1C(c1cc(F)ccc1F)S(=O)(=O)c1ccc(Cl)cc1 (stereo not drawn) [Example 209, 4-[(4-Chlorophenylsulfonyl)(2,5-difluorophenyl)methyl]-5-methylpicolinic acid] | 105 to 107 |
| O=C(O)c1cc(C(c2cc(F)ccc2F)S(=O)(=O)c2ccc(Cl)cc2)c(Cl)cn1 (stereo not drawn) [Example 262, 5-Chloro-4-[(4-chlorophenylsulfonyl)(2,5-difluorophenyl)methyl]picolinic acid] | 94 to 96 |
| Cn1c(Cl)cnc1C(c1cc(F)ccc1F)S(=O)(=O)c1ccc(Cl)cc1 (stereo not drawn) [Example 29, 2-[[(4-Chlorophenyl)sulfonyl]-(2,5-difluorophenyl)methyl]-1-methyl-5-chloro-1H-imidazole] | 179 to 180 |
| O=S(=O)(c1ccc(Cl)cc1)C(c1cc(F)ccc1F)C1CCOCC1 (stereo not drawn) [Example 34, 4-[[(4-Chlorophenyl)sulfonyl](2,5-difluorophenyl)methyl]tetrahydropyrane] | 150 to 152 |
| O=S(=O)(c1ccc(F)cc1)C(c1cc(F)ccc1F)c1cc(NCCO)ncc1Cl (stereo not drawn) [Example 179, 2-[[5-Chloro-4-[(2,5-difluorophenyl)-(4-fluorophenylsulfonyl)methyl]pyridin-2-yl]amino]ethanol] | 157 to 158 |
| O=C(O)c1ccc(C(c2cc(F)ccc2F)S(=O)(=O)c2ccc(Cl)cc2)nc1 (stereo not drawn) [Example 50, [6-[(4-Chlorophenylsulfonyl)-(2,5-difluorophenyl)methyl]pyridin-3-yl]carboxylic acid] | > 230 |
| CN1CCN(C(=O)CCc2cnc(C(c3cc(F)ccc3F)S(=O)(=O)c3ccc(Cl)cc3)c(F)c2)CC1.Cl (stereo not drawn) | 243 to 245 |
| O=S(=O)(c1ccc(Cl)cc1)C(c1ccncc1)C1CCCC1 (stereo not drawn) [Example 2, 4-[(4-Chlorophenylsulfonyl)(cyclopentyl)methyl]pyridine] | 133 to 135 |
| O=S(=O)(Cc1ccc(C(c2cc(F)ccc2F)S(=O)(=O)c2ccc(Cl)cc2)nc1)c1ccc(Cl)cc1 (stereo not drawn) [Example 40, 2-[(4-Chlorophenylsulfonyl)-(2,5-difluorophenyl)methyl]-5-[(4-chlorophenylsulfonyl)methyl]pyridine] | 186 to 187 |
| O=C(Nc1nccs1)c1cnc(C(c2cc(F)ccc2F)S(=O)(=O)c2ccc(Cl)cc2)c(F)c1 (stereo not drawn) [Example 128, 6-(4-Chlorophenylsulfonyl)(2,5-difluorophenyl)methyl-5-fluoro-N-thiazol-2-ylnicotinamide] | 243 to 245 |
| Cc1ccc(S(=O)(=O)NCC(=O)NCc2ccc(C(c3cc(F)ccc3F)S(=O)(=O)c3ccc(Cl)cc3)nc2)cc1 (stereo not drawn) [Example 70, N-[[6-[(4-Chlorophenylsulfonyl)(2,5-difluorophenyl)methyl]pyridin-3-yl]methyl]-2-(4-methylphenylsulfonylamino)acetamide] | 217 to 218 |
| O=C(O)CCc1cnc(C(c2cc(F)ccc2F)S(=O)(=O)c2ccc(Cl)cc2)c(F)c1 (stereo not drawn) [Example 133, 3-[6-(4-Chlorophenylsulfonyl)(2,5-difluorophenyl)methyl-5-fluoropyridin-3-yl]propionic acid] | 174 to 176 |
| O=S(=O)(c1ccc(Cl)cc1)C(c1cc(F)ccc1F)c1cc(NCCc2ccncc2)ncc1Cl (stereo not drawn) [Example 181, 5-Chloro-4-[(4-chlorophenylsulfonyl)(2,5-difluorophenyl)methyl]-2-[2-(pyridin-4-yl)ethylamino]pyridine] | 148 to 150 |
